Test results reported in PubChem BioAssay (NCI).
Values joined by “and” are separate entries in the source; they are usually repeats but may differ in a detail not shown here. Equal entries are not always repeated.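 96-well plates; 48 h exposure; 5 concentrations. Endpoints by linear interpolation between flanking doses. Not reached: highest tested concentration assigned. Abbreviation: GI50, concentration required for 50% inhibition of growth. TGI marks complete inhibition of growth.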

How the values were obtained:
Experiment in all cases: NCI anticancer screen, dose series, 48 h
[1] = tested on: NCI/ADR-RES ovarian
[2] = tested on: ACHN renal
[3] = tested on: HT29 colon
[4] = tested on: UACC-257 melanoma
[5] = tested on: NCI-H522 lung
[6] = tested on: DU-145 prostate
[7] = tested on: MDA-MB-435
[8] = tested on: A498 renal
[9] = tested on: LXFL 529 NSCLC

| SMILES | GI50 [1] | TGI [1] | GI50 [2] | TGI [2] | GI50 [3] | TGI [3] | GI50 [4] | TGI [4] | GI50 [5] | TGI [5] | GI50 [6] | TGI [6] | GI50 [7] | TGI [7] | GI50 [8] | TGI [8] | TGI [9] |
| --- | --- | --- | --- | --- | --- | --- | --- | --- | --- | --- | --- | --- | --- | --- | --- | --- | --- |
| c1ccc(-n2nnnc2-c2cccc3ccccc23)cc1 | 0.279 µM | 1.61 µM | 0.84 µM | > 100 µM | 0.357 µM | > 20.3 µM | 27.8 µM | > 100 µM | 0.272 µM | 2.71 µM | 0.92 µM | 6.86 µM | 0.121 µM | 0.489 µM | 0.704 µM | > 55.3 µM |  |
| NS(=O)(=O)c1cccc(N=Cc2c(O)[nH]c3ccccc23)c1 | > 25 µM | > 25 µM | > 23.1 µM | > 25 µM | > 25 µM | > 25 µM | > 25 µM | > 25 µM | 24.4 µM | > 25 µM | > 25 µM | > 25 µM | > 25 µM | > 25 µM | > 25 µM | > 25 µM |  |
| Cc1cc(C)c(O)c(CN(C)Cc2cc(Cl)cc(Cl)c2O)c1 | 2.89 µM | 12.5 µM | 4.73 µM | 24 µM | 5.1 µM | 17.4 µM | 3.14 µM | 12.1 µM | 2.22 µM | 6.14 µM | 6.37 µM | 20.8 µM | 6.16 µM | 30.2 µM | 5.69 µM | 21.9 µM |  |
| CC(=O)OC1CC2(O)C3CCC4CC(O)CCC4(C)C3CCC2(C)C1C1=CC(=O)OC1 (stereo not given) |  | 0.298 µM |  | 0.147 µM |  | 0.779 µM |  | 0.773 µM |  | 0.185 µM |  | 0.11 µM |  | 0.357 µM |  | 0.392 µM |  |
| N#CCc1ncc(-c2ccc(C(F)(F)F)cc2)c(NC2CCCCCC2)n1 | > 10 µM | > 10 µM | > 10 µM | > 10 µM | > 10 µM | > 10 µM | > 10 µM | > 10 µM | > 10 µM | > 10 µM | > 10 µM | > 10 µM | > 10 µM | > 10 µM | > 10 µM | > 10 µM |  |
| O=c1[nH]cnc2[nH]ncc12 | 214 µM | > 1250 µM | 193 µM | > 5000 µM | 842 µM | > 5000 µM | 788 µM | > 5000 µM | > 84.4 µM and 272 µM | > 5000 µM | > 92.6 µM and 189 µM | > 2150 µM | 380 µM | > 5000 µM | 532 µM | > 5000 µM |  |
| COc1ccccc1/C=N\N=C(N/N=C/c1ccccc1OC)N/N=C/c1ccccc1OC | 3.12 µM | 10.5 µM | 3.14 µM | > 100 µM | 3.87 µM | > 100 µM | 3.12 µM | 10.2 µM | 4.55 µM | > 100 µM | 3.92 µM | > 100 µM | 2.36 µM | 6.49 µM | 2.73 µM | 9.92 µM |  |
| Cc1cc(NS(=O)(=O)c2ccc(NC(=O)c3cccc4c(Nc5ccc(S(=O)(=O)N=C(N)N)cc5)c5ccccc5nc34)cc2)no1 |  |  |  | > 100 µM |  | > 100 µM |  | > 100 µM |  | > 100 µM |  |  |  |  |  | > 100 µM | > 100 µM |
